Data: patent US9937154B2, “Use of telmisartan to prevent and treat graft versus host disease and other alloimmune and autoimmune diseases” (Hackensack University Medical Center, priority 2015, dated 2018)
“Also recorded” adds a separate entry of the source. Structures can show the parent of a compound that is named as a salt. Where two headings read alike, the source gives them in different places.

What was measured:
[1] = system: transplant patients (IT GVHD); conditions: cited from earlier work
ROCK II [2] = target: T1, ROCK II (Homo sapiens, UniProt O75116); conditions: cited from earlier work
T1 sequence (O75116 whole entry): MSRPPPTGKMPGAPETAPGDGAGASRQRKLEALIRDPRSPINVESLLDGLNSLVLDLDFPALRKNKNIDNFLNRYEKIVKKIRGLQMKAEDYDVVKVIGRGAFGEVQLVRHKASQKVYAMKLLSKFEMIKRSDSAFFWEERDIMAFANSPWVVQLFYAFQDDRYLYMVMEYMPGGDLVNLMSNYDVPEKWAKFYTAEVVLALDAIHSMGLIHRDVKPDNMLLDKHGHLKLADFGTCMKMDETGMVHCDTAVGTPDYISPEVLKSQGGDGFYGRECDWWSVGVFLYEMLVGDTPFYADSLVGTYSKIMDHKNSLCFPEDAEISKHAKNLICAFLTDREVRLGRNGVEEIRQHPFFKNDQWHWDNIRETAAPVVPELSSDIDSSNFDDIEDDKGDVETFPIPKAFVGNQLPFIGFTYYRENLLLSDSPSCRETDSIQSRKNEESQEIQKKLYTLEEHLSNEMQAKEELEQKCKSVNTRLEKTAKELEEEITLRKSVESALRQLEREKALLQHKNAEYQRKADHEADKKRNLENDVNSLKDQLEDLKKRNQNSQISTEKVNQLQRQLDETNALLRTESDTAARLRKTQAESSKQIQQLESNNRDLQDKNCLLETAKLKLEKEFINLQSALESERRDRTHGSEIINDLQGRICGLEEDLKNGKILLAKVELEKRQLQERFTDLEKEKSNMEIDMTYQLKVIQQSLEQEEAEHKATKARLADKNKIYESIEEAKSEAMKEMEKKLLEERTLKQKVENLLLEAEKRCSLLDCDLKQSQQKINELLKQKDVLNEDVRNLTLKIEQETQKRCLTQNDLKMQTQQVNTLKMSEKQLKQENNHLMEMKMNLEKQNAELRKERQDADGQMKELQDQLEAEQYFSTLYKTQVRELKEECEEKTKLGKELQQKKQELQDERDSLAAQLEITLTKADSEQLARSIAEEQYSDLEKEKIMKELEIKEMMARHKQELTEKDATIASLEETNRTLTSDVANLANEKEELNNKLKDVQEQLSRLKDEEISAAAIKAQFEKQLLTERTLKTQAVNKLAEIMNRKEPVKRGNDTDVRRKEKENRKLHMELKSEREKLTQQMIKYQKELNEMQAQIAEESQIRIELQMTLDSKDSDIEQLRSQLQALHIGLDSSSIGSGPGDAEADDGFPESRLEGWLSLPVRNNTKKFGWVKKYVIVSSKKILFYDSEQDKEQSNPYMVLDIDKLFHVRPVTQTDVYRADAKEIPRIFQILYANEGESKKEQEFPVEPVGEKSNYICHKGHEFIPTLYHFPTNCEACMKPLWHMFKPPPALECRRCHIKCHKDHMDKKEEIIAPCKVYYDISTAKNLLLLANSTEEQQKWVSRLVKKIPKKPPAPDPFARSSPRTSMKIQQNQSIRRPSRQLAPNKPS

[3] = system: rat models of inflammatory and noninflammatory arthritic pain; conditions: cited from earlier work
human ROCK I = human ROCK I (Homo sapiens, UniProt Q13464); conditions: cited from earlier work
Sequence of human ROCK I (Q13464 whole entry): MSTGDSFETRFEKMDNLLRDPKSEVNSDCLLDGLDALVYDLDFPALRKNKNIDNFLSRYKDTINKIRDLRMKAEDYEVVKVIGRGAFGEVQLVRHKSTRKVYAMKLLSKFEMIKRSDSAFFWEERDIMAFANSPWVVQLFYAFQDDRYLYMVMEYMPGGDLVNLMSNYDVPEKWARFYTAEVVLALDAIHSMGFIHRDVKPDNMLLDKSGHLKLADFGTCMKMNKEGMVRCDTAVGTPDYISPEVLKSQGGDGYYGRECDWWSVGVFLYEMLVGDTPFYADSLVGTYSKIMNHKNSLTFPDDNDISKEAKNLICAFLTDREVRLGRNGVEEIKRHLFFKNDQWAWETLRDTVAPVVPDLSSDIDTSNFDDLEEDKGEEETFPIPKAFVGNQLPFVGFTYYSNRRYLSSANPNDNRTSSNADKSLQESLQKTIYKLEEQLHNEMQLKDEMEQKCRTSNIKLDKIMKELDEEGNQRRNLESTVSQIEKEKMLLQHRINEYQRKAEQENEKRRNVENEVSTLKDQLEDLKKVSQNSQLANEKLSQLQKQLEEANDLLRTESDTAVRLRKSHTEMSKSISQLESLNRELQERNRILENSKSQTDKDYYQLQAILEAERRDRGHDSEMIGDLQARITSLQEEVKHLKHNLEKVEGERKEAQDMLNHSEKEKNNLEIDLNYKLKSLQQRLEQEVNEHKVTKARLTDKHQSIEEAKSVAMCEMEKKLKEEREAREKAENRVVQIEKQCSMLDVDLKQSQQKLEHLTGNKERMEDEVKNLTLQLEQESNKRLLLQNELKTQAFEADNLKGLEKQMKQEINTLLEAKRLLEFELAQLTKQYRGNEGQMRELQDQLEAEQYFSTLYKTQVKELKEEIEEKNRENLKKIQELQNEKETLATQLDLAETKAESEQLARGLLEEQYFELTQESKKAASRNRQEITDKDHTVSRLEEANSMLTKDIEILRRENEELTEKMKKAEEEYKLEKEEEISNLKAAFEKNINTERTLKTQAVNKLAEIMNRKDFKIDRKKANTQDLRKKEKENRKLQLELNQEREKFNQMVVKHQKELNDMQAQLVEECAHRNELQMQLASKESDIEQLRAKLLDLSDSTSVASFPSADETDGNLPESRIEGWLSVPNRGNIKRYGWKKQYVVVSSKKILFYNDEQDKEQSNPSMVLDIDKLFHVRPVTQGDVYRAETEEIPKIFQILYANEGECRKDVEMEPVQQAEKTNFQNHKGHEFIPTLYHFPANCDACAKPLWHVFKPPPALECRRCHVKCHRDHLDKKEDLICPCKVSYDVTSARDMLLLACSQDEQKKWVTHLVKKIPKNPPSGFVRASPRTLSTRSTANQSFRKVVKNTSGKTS

[4] = in vivo; cited from earlier work
neutrophil migration = conditions: cited from earlier work
preconstricted rat aorta = conditions: cited from earlier work
[5] = system: rat model of hypertension; conditions: cited from earlier work
ROCK II [6] = target: T1, ROCK II; conditions: cited from earlier work; remark: listed apart in the source
ROCK = conditions: cited from earlier work
small intestinal crypts = experiment: small intestine tissue sections of 90 day survivor mice; assay type: in vivo, mouse; conditions: FIG. 7
Description: (B) Limited inflammation within dashed lines of basal layer and lamina propria, with intact crypts, in 90 day survivor Fasudil® treated mice.

C3B6 mice (GVHD model) [7] = experiment: GVHD survival in irradiated C3B6 F1 mice given ATBM and donor T cells; conditions: ATBM + T cells + Fasudil i.p. and p.o., n = 26
[8] = system: CFSE labeled splenic lymphocytes from C3B6 hosts; experiment: CFSE labeling with flow-based assessment of splenic lymphocyte division in one-way MLR; assay type: cell-based, mouse; conditions: day 98 survivor mice
Experimental: Carboxyfluorescein […] succinimidyl ester (CFSE) labeling (Molecular Probes, Carlsbad, Calif., Catalog No. C34554, or equivalent) with flow cytometry detection was employed to assess lymphocyte cell division in response to alloantigen recognition. Briefly, lymphocytes from responders and stimulators were harvested as described above. For this experiment, sources of stimulator cells included C3H, C3B6 and Balb/c mice. Next, lymphocytes from responders were incubated in CFSE prepared according to manufacturer's protocol at 37° C. for 10 minutes. The staining was quenched by the addition of 5 volumes of ice-cold culture media (12.5% Bovine Serum Albumin (BSA) in RPMI) to the lymphocytes. Lymphocytes were incubated on ice for 5 minutes before pelleting by centrifugation. After centrifugation, the lymphocytes were washed by resuspending and pelleting 3 times in fresh culture media. One-way MLRs were performed by mixing 1×10^5 lymphocytes from both stimulator and CFSE responder cells in a 96-well tissue culture plate (Corning Costar, Tewksbury, Mass., Catalog No. CLS3585 or equivalent). […] After 5 days of incubation, the cells were harvested and analyzed using a flow cytometer with 488 nm excitation and emission filters appropriate for fluorescein. […]

C3B6 mice (GVHD model) [9] = experiment: GVHD-associated weight loss and diarrhea in C3B6 mice; assay type: in vivo, mouse
Experimental: It is well known that weight loss occurs in patients with GVHD. Jacobsohn D A, et al., Bone Marrow […]. 29(3): 231-236 (2002). […] C3B6 mice were treated according to Example 1. […] Despite the similar initial weight losses of Fasudil® treated and untreated T cell recipients, the two groups had different rates of diarrhea. […] Diarrhea resolved by the fourth week among survivors in both groups.

SAH patients = conditions: over 1400 SAH patients; cited from earlier work
C3B6 mice (GVHD model) [10] = experiment: GVHD-associated skin inflammation in C3B6 mice; assay type: in vivo, mouse; conditions: ATBM+T cells+Fasudil recipient mice
Experimental: Skin is most commonly affected and usually the first organ involved in GVHD. Ferrara J L M, et al., Lancet. 373(9674): 1550-1561 (2009). In this study, C3B6 mice were used to determine the effect of ROCK inhibitors on GVHD-associated skin inflammation.
C3B6 mice were treated according to Example 1. […] . Skin inflammation in C3B6 treated mice occurred in the fourth week and gradually waned over a two week-period.

[11] = system: responding splenocytes from C3B6 hosts; experiment: mouse IFN-γ ELISPOT after one-way mixed lymphocyte reaction of host splenocytes; assay type: cell-based
Experimental: Classically, a MLR is carried out by co-incubating lymphocytes from two strains that differ in histocompatibility genes for several days, and the proliferative response of T cells of one lymphocyte population to histocompatibility antigens of the other then measured.
Secretion of IFN-γ by responder cells in a MLR was used as an indicator of cytotoxic T lymphocyte function (i.e., alloreactivity). Briefly, spleens from C3B6 mice treated according to Example 1 were harvested at day 10 (C3H donor T cells migrating to the spleen with few de novo generated T cells emigrating from the host thymus) or at day 84 (spleens containing newly generated T cells maturing within the host thymus; i.e., allotolerant of host B6 parental antigens) post-transplant for use as responders. Spleens from C3H, C3B6 and DBA mice (Jackson Laboratory) were harvested for use as stimulators. Spleens were homogenized and the cells were washed twice with Phosphate Buffered Saline (PBS) (Sigma Aldrich, St. Louis, Mo., Catalog No. P5493, or equivalent). Red blood cells were separated from lymphocytes using Ficoll®. Briefly, cells were transferred to 50 mL conical tubes containing 15 mL of Ficoll®-Paque PLUS (GE Healthcare, Waukesha, Wis., Catalog No. 17-1440-03) and centrifuged at 800 rcf (1,900-2,000 rpm) for 20 minutes with centrifuge break off. After centrifugation, the buffy coat layer (containing lymphocytes) was removed and transferred to a new 50 mL conical tube. Phosphate-buffered saline (PBS) without calcium and magnesium (Gibco, Life Technologies, Carlsbad, Calif., Catalog No. 10010-023 or equivalent) was added to the buffy coat layer so that the total volume in the conical tube is equal to 50 mL. The buffy coat layer in PBS was centrifuged at 250 rcf (1,200 rpm) for 10 minutes with centrifuge brake applied. After centrifugation, the PBS was aspirated and the lymphocyte pellet was resuspended in 48 mL of PBS. Lymphocytes resuspended in PBS were centrifuged at 250 rcf (1,200 rpm) for 10 minutes with centrifuge break applied. PBS was aspirated and PBMC pellet resuspended in 12.5% Bovine Serum Albumin (BSA) (Sigma-Aldrich, St. Louis, Mo., Catalog No. A9418-5G or equivalent) in RPMI medium (Sigma-Aldrich, St. Louis, Mo., Catalog No. R7388 or equivalent). Stimulator lymphocytes (from C3H, C3B6 and DBA mouse spleens) were irradiated for 2.5 minutes (2,000 RAD) in a cesium irradiator.
One-way MLRs were performed by mixing 1×10^5 lymphocytes from both stimulator and responder cells in a 96-well ELISPOT (eBioscience, San Diego, Calif., Catalog No. 88-7384, or equivalent) capture plate coated with anti-mouse IFN-γ antibody according to manufacturer's protocol. […]

[12] = system: animal models of subarachnoid hemorrhage (SAH); conditions: cited from earlier work

Molecule: maraviroc
- IT GVHD and acute (within 100 days) death [1]: prevented IT GVHD and acute (within 100 days) death; also recorded: no acute deaths

Molecule: O=C(Nc1ccc(-c2ccncc2)cc1)N[C@H](CO)c1ccccc1 [AS 1892802]
- IC50 (ROCK II [2]): 52 nM
- analgesic effects [3]: exhibits analgesic effects
- IC50 (human ROCK I): 122 nM

Molecule: Cl.O=c1[nH]ccc2c(S(=O)(=O)N3CCCNCC3)cccc12 [HA 1100 hydrochloride]
- vasodilatory effects [4]: potent vasodilatory effects
- neutrophil migration (neutrophil migration): inhibit neutrophil migration

Molecule: CCn1c(-c2nonc2N)nc2cnc(Oc3cccc(NC(=O)c4ccc(OCCN5CCOCC5)cc4)c3)cc21 [GSK 269962]
- vasorelaxation (preconstricted rat aorta): induce vasorelaxation
- blood pressure [5]: lower blood pressure

Molecule: Cc1cncc2cccc(S(=O)(=O)N3CCCN(C(=O)CN)C[C@@H]3C)c12 [Glycyl-H-1152 dihydrochloride]
- IC50 (ROCK II [6]): 11.8 nM

Molecule: c1ccc2c(-c3ccncc3)c[nH]c2c1 [Rockout®]
- IC50 (ROCK; ATP-competitive, reversible): 25000 nM
- effect on the activation of ROCK (ROCK): does not inhibit the activation of ROCK

Molecule: O=S(=O)(c1cccc2cnccc12)N1CCCNCC1 [Fasudil®, Fasudil]
- small intestinal crypt inflammation (small intestinal crypts): minimal small intestinal crypt inflammation
- Survival Rate (95% CI), 90 day (C3B6 mice (GVHD model) [7]): 73%
- Survival Rate (95% CI), 90 day (C3B6 mice (GVHD model) [7]; listed as Fasudil ®): 73% (55%-88%)
- spleen cell division in response to B6C3F1 stimulation ([8]; FIG. 6-E): strongly responded to B6C3F1 stimulation
- spleen cell division in response to Balb/c stimulation ([8]; FIG. 6-F): comparable to their response to Balb/c
- mice developing clinically observable diarrhea (C3B6 mice (GVHD model) [9]; between second and third weeks post-transplant): less than 20%
- weight loss (C3B6 mice (GVHD model) [9]; first three weeks post-transplant, roughly the same as ATBM+T cells mice): ~25 % total body weight
- subsequent weight recovery (C3B6 mice (GVHD model) [9]; most experiments, data not shown): recovered more weight than ATBM+T cells recipient mice
- tolerability and safety (SAH patients): well tolerated and safe
- skin inflammation (C3B6 mice (GVHD model) [10]): did not prevent skin inflammation
- Day 10 IFN-γ secreting spleen cell frequencies ([11]; Concanavalin A positive control): 120.0 per 100,000 cells
- Day 10 IFN-γ secreting spleen cell frequencies ([11]; irradiated stimulators C3B6F1 (host), 4 day one-way MLR): 115.6 per 100,000 cells
- Day 10 IFN-γ secreting spleen cell frequencies ([11]; irradiated stimulators C3H (self), 4 day one-way MLR): 2.3 per 100,000 cells
- Day 10 IFN-γ secreting spleen cell frequencies ([11]; irradiated stimulators DBA (third party), 4 day one-way MLR): 18 per 100,000 cells
- blood vessel spasm and constriction after subarachnoid bleeding [12]: effective in reversing blood vessel spasm and constriction
